Data as given in US9326927B2, “Use of cannabinoid compounds for stimulating melanogenesis” (L'OREAL, priority 2011, dated 2016).

Legend:
[1] = test system: Normal human epidermal melanocytes (NHEMs); test: Determination of the melanin content of the melanocytes (Example 1); type: cell-based; set-up: key to amount of melanin in NHEM cells, mean: fold of untreated control melanin amount (control = 1); conditions: for effect on amount of melanin in the melanocytes (NHEMs), in words: 1 μM, by means of the CB1 receptor; for effect of receptor antagonist on the propigmenting effect of mAEA, in words: antagonist in combination with mAEA 1 μM (SR1 0.1 μM)
Experimental: Normal human epidermal melanocytes (NHEMs) isolated from foreskins and supplied by Promocell (Heidelberg, Germany) are cultured for 24 h at 37° C. in a humid atmosphere at 5% CO2 in an appropriate culture medium M2 (Promocell).
The AEA and the other compounds are added directly to the culture medium. Twenty-four hours after each treatment, the cell viability was measured using Trypan blue exclusion dye (Maccarone et al., 2003).
The mAEA, the AEA and the ACEA are tested in vitro at a concentration of 1 μM and compared. The mAEA is also used at this concentration when it is used in combination with SR1 at 0.1 μM.
Moreover, the mAEA was also tested, alone, at concentrations of 0.5, 1.0, 1.5, 2.0, 2.5 and 3.0 μM.
The amount of melanin present in the NHEM cells is measured according to a method known to those skilled in the art (Xiao et al., Arch Dermatol Res 2007; 299: 245-57). According to this method, the NHEM cells are treated with trypsin and washed twice with a phosphate buffered saline. The samples are then resuspended in 200 μl of MilliQ water, and 1 ml of an ethanol: ether mixture (1:1, vol/vol) is added in order to remove the opaque substances other than melanin. After 15 minutes, the samples are centrifuged at 600 g for 5 minutes. The pellet is air-dried and dissolved in 200 μl of 1 N sodium hydroxide. The samples are then heated at 80° C. for one hour and cooled.
The amount of melanin is determined by spectrophotometry at 450 nm using the standard melanin controls supplied by Sigma Chemical Co., so as to verify the linearity range of the test. The amount of melanin is expressed relative to the control.
The results given are the means, with their standard deviations, of 3 independent tests, each carried out in triplicate. They were compared by analysis of variance (ANOVA).

[2] = test system: pigmented reconstructed epidermises (normal human melanocytes and keratinocytes); test: Propigmenting effect on pigmented reconstructed epidermises (PREs), melanin quantified by image analysis (Example 3); type: cell-based
Experimental: Pigmented epidermises are reconstructed on a collagen support (BPER [biodressing for reconstructed epidermis]) using normal human melanocytes and keratinocytes.
The epidermises are obtained after 8 days of reconstruction; the melanocytes chosen are of estimated phototype IV.1.
Some epidermises are treated daily with the placebo, others with the test product mAEA at different concentrations (1 μM and 3 μM).
Each experimental condition is performed in quadruplicate.
The histological quality of the epidermises after treatment is evaluated on histological sections after HES staining in order to determine the impact of the treatment on the epidermises. Also, the physiology of the melanocytes is studied in order to detect any melano-cytotoxicity. If no histological modification nor any melanotoxic effect of the product evaluated is noted, the pigmentation is quantified by quantifying the melanin on histological sections by image analysis.
(§1) Quantification of the pigmentation by microscopic quantification of the melanin is then carried out and makes it possible to illustrate a propigmenting activity of the test compound.
The melanin present in the epidermis is stained on histological sections (Fontana Masson staining) and then quantified by image analysis. For this, each epidermis is photographed over its entire width using a microscope. Approximately 10 images are acquired per epidermis (white light, ×20 magnification).
The area taken up by melanin is quantified using custom-designed image analysis software. Briefly, each image is segmented into 4 zones according to their color (lumen, stratum corneum, live epidermis and BPER). […] The pixels occupied by the melanin in the whole epidermis or the live layers are then quantified.
This quantification takes into account the area taken up by the melanin and also the average localization of the melanin in the epidermis.
The results below are expressed as percentage relative stimulation with respect to the control cultured in standard coculture medium.

[3] = test system: Primary human melanocytes (NHEMs); test: Melanin production in NHEMs (Example 4); type: cell-based; conditions: 1 μM, 72 h
Experimental: (§2) Primary human melanocytes (NHEMs) were seeded into 24-well plates in the presence (coculture) of normal human epidermal keratinocytes (NHEKs) and then cultured for 24 h. The cells were then treated with nothing (negative control), IBMX (positive control, 200 μM), or methanandamide (mAEA, 1 μM).
(§3) After treatment, the cells were incubated for 72 h, all the experimental conditions having been carried out in triplicate.
(§4) After 72 h of incubation, the cells were lysed with a 0.5 N NaOH solution in order to extract the melanin.
as §1
(§5) The optical density of the samples was measured at 405 nm, with reference to an exogenous melanin range (standard melanin curve 0.39 to 100 μg/ml).

NHEKs+NHEMs coculture = test: Melanin production in NHEM-NHEK coculture (Example 4); type: cell-based, human; conditions: 72 h
Experimental: as §2, §3, §4, §1, §5

[4] = expressed relative to the control, compound alone at 1 μM, mean of 3 independent tests

CCCCC/C=C\C/C=C\C/C=C\C/C=C\CCCC(=O)NC(C)CO (stereo not drawn) [mAEA, R(+)-arachidonyl-1′-hydroxy-2′-propylamide]
effect on amount of melanin in the melanocytes (NHEMs), in words [1]: significantly increase the amount of melanin
dose/effect relationship of melanin production in NHEM cells, in words ([1]; 0.5 to 3.0 μM): dose-dependent increase in melanin production
amount of melanin in NHEM cells, mean [1, 4]: 2.80
amount of melanin in NHEM cells, mean ([1]; relative to the control, mAEA 1 μM in combination with SR1 0.1 μM): 1.22
amount of melanin in NHEM cells, mean ([1]; relative to the control, mAEA alone 0.5 μM): 1.75
amount of melanin in NHEM cells, mean ([1]; relative to the control, mAEA alone 1.5 μM): 3.30
amount of melanin in NHEM cells, mean ([1]; relative to the control, mAEA alone 2 μM): 3.34
amount of melanin in NHEM cells, mean ([1]; relative to the control, mAEA alone 2.5 μM): 3.75
amount of melanin in NHEM cells, mean ([1]; relative to the control, mAEA alone 3 μM): 4.13
amount of melanin in NHEM cells, mean ([1]; relative to the control, mAEA in combination with SR2): 2.34
melanin, percentage relative stimulation with respect to the control ([2]; 1 μM SYST D17): 315%
melanin production in pigmented reconstructed epidermises, in words ([2]; 1 μM and 3 μM, daily treatment): very large increase in melanin production
melanin, percentage relative stimulation with respect to the control ([2]; second line, printed 1 μM SYST D17): 356.25%
melanin production in NHEM cells, in words [3]: increase in melanin production
melanin production in NHEK+NHEM cells, in words (NHEKs+NHEMs coculture; 1 μM): increase in melanin production
melanin production in NHEKs+NHEMs compared with NHEMs alone and IBMX positive control, in words (NHEKs+NHEMs coculture; mAEA 1 μM vs IBMX 200 μM): greater than in NHEMs alone, even exceeding that of the IBMX positive control

Cc1c(C(=O)NN2CCCCC2)nn(-c2ccc(Cl)cc2Cl)c1-c1ccc(Cl)cc1 [SR1, N-piperidino-5-(4-chlorophenyl)-1-(2,4-dichlorophenyl)-4-methyl-3-pyrazole carboxamide, reference compound]
effect of receptor antagonist on the propigmenting effect of mAEA, in words [1]: prevents mAEA from having its propigmenting effect

CCCCC/C=C\C/C=C\C/C=C\C/C=C\CCCC(=O)NCCCl [ACEA, Arachidonyl-2′-chloroethylamide]
effect on amount of melanin in the melanocytes (NHEMs), in words [1]: significantly increase the amount of melanin
amount of melanin in NHEM cells, mean [1, 4]: 2.14

N-[(1S)-endo-1,3,3-trimethy-1-bicyclo[2.2.1]heptan-2-yl]-5-(4-choro-3-methylphenyl)-1-(4-methylbenzyl)pyrazole-3-carboxamide [SR2, reference compound]
effect of receptor antagonist on the propigmenting effect of mAEA, in words [1]: does not, on the other hand, prevent mAEA from having this effect

CCCCC/C=C\C/C=C\C/C=C\C/C=C\CCCC(=O)NCCO [Anandamide, N-arachidonoylethanolamine]
effect on amount of melanin in the melanocytes (NHEMs), in words [1]: significantly increase the amount of melanin
amount of melanin in NHEM cells, mean [1, 4]: 2.09
